Experimental data as given in the Kinase Knowledgebase extract (Sharma et al. 2016).

Experiments:
PIK3CD (Human) [1] = molecular target: PIK3CD (Human) (UniProt O00329); assay: Assessment of PIK3CD Kinase Activity
PIK3CG (human) = PIK3CG (human) (UniProt P48736); assay: Assessment of PIK3CG Kinase Activity
PIK3CA (human) = PIK3CA (human) (UniProt P42336); assay: Assessment of PIK3CA Kinase Activity
PIK3CB (Human) = PIK3CB (Human) (UniProt P42338); assay: Assessment of PIK3CB Kinase Activity
PIK3CD (Human) [2] = molecular target: PIK3CD (Human) (UniProt O00329); assay: Assessment of PIK3CD Kinase Activity in RAJI Cells

Chain of PIK3CB (Human) (P42338 whole entry, looked up): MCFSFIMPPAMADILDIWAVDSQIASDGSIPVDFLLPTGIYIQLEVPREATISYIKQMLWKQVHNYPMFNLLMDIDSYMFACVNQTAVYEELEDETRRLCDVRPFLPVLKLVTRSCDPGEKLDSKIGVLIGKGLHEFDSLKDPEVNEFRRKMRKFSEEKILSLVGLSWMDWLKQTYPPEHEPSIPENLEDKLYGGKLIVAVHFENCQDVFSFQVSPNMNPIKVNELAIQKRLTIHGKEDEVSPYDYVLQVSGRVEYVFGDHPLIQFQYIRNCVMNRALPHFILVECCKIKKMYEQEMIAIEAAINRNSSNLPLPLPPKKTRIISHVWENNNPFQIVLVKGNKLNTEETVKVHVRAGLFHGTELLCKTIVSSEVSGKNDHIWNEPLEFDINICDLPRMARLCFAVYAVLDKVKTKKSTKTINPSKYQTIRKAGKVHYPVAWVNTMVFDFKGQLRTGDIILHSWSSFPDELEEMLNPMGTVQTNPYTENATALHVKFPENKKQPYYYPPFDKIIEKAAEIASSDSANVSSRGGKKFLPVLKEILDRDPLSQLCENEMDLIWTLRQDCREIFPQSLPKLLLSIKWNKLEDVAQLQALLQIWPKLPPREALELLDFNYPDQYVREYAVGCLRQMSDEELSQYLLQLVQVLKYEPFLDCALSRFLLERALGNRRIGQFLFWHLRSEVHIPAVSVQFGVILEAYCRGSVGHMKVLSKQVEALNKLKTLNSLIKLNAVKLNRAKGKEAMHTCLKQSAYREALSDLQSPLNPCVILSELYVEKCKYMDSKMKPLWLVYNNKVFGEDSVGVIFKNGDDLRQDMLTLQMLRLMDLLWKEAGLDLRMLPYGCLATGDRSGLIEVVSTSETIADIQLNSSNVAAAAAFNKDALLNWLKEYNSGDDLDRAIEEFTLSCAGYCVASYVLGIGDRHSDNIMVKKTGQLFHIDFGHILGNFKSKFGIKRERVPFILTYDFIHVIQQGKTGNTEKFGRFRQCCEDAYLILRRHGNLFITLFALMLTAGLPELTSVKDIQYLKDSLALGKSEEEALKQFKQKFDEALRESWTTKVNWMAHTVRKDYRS
Chain of PIK3CA (human) (P42336 whole entry, looked up): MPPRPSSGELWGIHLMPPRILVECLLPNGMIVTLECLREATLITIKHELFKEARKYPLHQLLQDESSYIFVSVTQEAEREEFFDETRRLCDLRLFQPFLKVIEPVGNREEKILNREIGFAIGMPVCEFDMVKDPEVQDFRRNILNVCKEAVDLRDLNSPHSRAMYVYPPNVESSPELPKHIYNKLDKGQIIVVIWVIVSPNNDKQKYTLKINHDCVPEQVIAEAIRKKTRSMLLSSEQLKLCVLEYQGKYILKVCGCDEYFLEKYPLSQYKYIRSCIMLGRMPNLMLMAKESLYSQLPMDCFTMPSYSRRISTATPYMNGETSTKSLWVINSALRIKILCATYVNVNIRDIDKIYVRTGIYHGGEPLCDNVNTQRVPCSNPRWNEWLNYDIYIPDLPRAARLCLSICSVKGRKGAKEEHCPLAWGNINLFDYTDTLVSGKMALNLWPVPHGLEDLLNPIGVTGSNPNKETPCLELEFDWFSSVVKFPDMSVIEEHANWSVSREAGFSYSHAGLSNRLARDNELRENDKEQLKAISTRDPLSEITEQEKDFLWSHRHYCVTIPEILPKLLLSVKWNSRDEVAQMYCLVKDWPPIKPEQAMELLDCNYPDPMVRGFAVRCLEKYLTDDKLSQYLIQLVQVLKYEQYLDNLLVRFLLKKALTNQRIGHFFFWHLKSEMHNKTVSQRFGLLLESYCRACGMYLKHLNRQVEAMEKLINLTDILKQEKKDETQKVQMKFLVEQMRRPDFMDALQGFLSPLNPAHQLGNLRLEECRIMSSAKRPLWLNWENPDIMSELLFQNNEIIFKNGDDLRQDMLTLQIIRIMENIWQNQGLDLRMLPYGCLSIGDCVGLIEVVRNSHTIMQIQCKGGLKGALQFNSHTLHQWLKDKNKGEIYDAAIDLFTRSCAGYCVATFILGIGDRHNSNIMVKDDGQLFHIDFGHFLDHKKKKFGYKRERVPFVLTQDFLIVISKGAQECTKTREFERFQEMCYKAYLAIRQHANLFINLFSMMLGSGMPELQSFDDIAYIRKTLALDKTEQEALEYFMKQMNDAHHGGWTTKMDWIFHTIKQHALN
Chain of PIK3CD (Human) (O00329 whole entry, looked up): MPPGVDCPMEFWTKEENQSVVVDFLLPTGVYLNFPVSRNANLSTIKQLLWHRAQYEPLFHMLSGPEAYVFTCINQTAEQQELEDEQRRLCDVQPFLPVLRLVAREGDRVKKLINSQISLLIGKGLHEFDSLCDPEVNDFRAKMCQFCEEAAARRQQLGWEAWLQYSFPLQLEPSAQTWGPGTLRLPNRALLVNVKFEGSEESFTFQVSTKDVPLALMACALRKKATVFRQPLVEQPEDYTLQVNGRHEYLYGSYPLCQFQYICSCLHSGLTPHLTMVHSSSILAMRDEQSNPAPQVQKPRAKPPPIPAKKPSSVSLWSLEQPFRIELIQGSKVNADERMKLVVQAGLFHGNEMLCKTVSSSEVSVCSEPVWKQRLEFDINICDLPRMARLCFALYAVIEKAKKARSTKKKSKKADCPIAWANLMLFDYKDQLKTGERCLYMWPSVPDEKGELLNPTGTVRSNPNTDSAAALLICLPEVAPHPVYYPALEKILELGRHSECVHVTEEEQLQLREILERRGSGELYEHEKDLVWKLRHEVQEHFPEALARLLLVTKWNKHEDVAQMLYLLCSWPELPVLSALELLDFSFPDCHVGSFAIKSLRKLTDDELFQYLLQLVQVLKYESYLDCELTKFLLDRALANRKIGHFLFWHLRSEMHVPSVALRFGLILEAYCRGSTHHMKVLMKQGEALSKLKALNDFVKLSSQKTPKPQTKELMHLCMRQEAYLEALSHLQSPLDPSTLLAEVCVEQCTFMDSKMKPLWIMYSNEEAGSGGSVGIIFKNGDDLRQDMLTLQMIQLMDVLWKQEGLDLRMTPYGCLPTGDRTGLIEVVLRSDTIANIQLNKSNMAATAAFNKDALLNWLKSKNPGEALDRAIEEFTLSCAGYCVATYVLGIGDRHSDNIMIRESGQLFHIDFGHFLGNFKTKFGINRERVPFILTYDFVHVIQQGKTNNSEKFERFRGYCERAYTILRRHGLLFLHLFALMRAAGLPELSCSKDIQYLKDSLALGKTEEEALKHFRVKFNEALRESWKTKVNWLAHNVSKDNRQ
Chain of PIK3CG (human) (P48736 whole entry, looked up): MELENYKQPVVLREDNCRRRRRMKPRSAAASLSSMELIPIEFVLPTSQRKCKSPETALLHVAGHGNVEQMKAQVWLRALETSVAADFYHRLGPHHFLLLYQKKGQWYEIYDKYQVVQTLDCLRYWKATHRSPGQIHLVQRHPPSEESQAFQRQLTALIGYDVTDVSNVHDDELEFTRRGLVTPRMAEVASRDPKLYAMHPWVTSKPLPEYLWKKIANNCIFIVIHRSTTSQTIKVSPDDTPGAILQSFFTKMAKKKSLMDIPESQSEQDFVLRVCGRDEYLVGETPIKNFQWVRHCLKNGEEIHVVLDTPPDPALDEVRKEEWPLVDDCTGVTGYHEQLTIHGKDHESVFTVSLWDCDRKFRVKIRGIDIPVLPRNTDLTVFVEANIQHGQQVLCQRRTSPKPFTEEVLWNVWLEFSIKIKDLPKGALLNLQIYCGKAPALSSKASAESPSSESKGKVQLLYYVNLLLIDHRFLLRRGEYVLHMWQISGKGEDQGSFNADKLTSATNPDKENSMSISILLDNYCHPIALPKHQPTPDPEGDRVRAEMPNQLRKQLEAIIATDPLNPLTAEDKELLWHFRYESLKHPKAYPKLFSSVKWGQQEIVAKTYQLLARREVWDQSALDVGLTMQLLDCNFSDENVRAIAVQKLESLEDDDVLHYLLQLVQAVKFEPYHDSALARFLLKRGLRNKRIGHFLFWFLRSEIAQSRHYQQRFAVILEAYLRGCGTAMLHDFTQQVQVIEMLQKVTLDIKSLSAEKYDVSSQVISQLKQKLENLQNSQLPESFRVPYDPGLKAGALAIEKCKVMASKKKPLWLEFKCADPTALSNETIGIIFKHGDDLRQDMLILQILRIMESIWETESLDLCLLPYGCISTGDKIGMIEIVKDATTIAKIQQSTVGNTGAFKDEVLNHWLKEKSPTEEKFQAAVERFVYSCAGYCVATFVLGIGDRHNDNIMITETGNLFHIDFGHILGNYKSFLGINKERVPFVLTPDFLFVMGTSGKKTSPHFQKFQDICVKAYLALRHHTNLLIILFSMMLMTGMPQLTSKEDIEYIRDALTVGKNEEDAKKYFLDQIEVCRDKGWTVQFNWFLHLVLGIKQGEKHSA

| SMILES | IC50 (PIK3CD (Human) [1]) | IC50 (PIK3CG (human)) | IC50 (PIK3CA (human)) | IC50 (PIK3CB (Human)) | IC50 (PIK3CD (Human) [2]) |
| --- | --- | --- | --- | --- | --- |
| C=CS(=O)(=O)Nc1cccc(-c2cnc(N)nc2N[C@@H](C)c2cc3cccc(Cl)c3c(=O)n2-c2ccccc2)c1 | < 100 nM | < 100 nM | 100 to 1000 nM | 100 to 1000 nM | < 100 nM |
| C[C@H](Nc1nc(N)ncc1-c1cccc(S(=O)(=O)N2CCCC2)c1)c1cc2cccc(Cl)c2c(=O)n1-c1ccccc1 | < 100 nM | < 100 nM | > 10000 nM | 100 to 1000 nM | < 100 nM |
| C[C@H](Nc1nc(N)ncc1-c1cccc(S(C)(=O)=O)c1)c1cc2cccc(C(F)(F)F)c2c(=O)n1-c1ccccc1 | 100 to 1000 nM | 100 to 1000 nM | – | – | < 100 nM |
| COc1cc(-n2c([C@H](C)Nc3nc(N)ncc3C#N)cc3cccc(Cl)c3c2=O)ccc1F | – | < 100 nM | > 10000 nM | – | < 100 nM |
| COC(=O)c1cccc(-n2c([C@H](C)Nc3nc(N)ncc3C#N)cc3cccc(Cl)c3c2=O)c1 | 100 to 1000 nM | – | – | > 10000 nM | < 100 nM |
| C[C@H](Nc1nc(N)ncc1-c1ccc(S(C)(=O)=O)nc1)c1cc2cccc(Cl)c2c(=O)n1-c1ccccc1 | – | 100 to 1000 nM | > 10000 nM | – | < 100 nM |
| C[C@H](Nc1nc(N)ncc1C#N)c1cc2cccc(-c3cncc(NS(C)(=O)=O)c3)c2c(=O)n1-c1ccccc1 | – | < 100 nM | – | – | < 100 nM |
| C[C@H](Nc1nc(N)ncc1-c1cccc(S(C)(=O)=O)c1)c1cc2cccc(Cl)c2c(=O)n1-c1ccccc1 | 100 to 1000 nM | < 100 nM | – | – | < 100 nM |
| COc1cc(-c2cccc3cc([C@H](C)Nc4nc(N)ncc4C#N)n(-c4ccccc4)c(=O)c23)ccn1 | < 100 nM | < 100 nM | 100 to 1000 nM | – | < 100 nM |
| CNS(=O)(=O)c1cccc(-c2cnc(N)nc2N[C@@H](C)c2cc3cccc(Cl)c3c(=O)n2-c2ccccc2)c1 | 100 to 1000 nM | < 100 nM | – | 100 to 1000 nM | < 100 nM |
| CC(C)C(=O)c1cnc(N)nc1N[C@@H](C)c1cc2cccc(Cl)c2c(=O)n1-c1ccccc1 | 100 to 1000 nM | 100 to 1000 nM | – | > 10000 nM | < 100 nM |
| Cc1ncc(-c2cccc3cc([C@H](C)Nc4ncnc(N)c4C#N)n(-c4ccon4)c(=O)c23)cn1 | 100 to 1000 nM | > 10000 nM | > 10000 nM | > 10000 nM | < 100 nM |
| CCOc1nc(-c2cnc(N)nc2N[C@@H](C)c2cc3cccc(-c4cnc(OC)nc4)c3c(=O)n2-c2ccccc2)cs1 | < 100 nM | 100 to 1000 nM | – | – | < 100 nM |
| C[C@H](Nc1nc(N)ncc1-c1cccc(S(=O)(=O)N2CCCCC2)c1)c1cc2cccc(Cl)c2c(=O)n1-c1ccccc1 | 100 to 1000 nM | < 100 nM | 100 to 1000 nM | 100 to 1000 nM | < 100 nM |
| C[C@H](Nc1nc(N)ncc1C#N)c1cc2cccc(Cl)c2c(=O)n1-c1ccc(F)c(F)c1 | – | < 100 nM | > 10000 nM | – | < 100 nM |
| COc1cc(-c2cccc3cc(CNc4nc(N)ncc4C#N)n(-c4ccccc4)c(=O)c23)ccn1 | < 100 nM | 100 to 1000 nM | > 10000 nM | > 10000 nM | < 100 nM |
| CC(=O)c1cnc(N)nc1N[C@@H](C)c1cc2cccc(Cl)c2c(=O)n1-c1ccccc1 | < 100 nM | < 100 nM | 100 to 1000 nM | < 100 nM | < 100 nM |
| C[C@H](Nc1nc(N)ncc1C#N)c1cc2cccc(Cl)c2c(=O)n1C1CC1 | – | < 100 nM | > 10000 nM | – | < 100 nM |
| COc1ncc(-c2cnc(N)nc2N[C@@H](C)c2cc3cccc(Cl)c3c(=O)n2-c2ccccc2)s1 | < 100 nM | < 100 nM | > 10000 nM | – | < 100 nM |
| COc1ncc(-c2cccc3cc([C@H](C)Nc4nc(N)ncc4C#N)n(-c4ccon4)c(=O)c23)cn1 | 100 to 1000 nM | – | > 10000 nM | > 10000 nM | < 100 nM |
| CC(C)n1c([C@H](C)Nc2ncnc(N)c2C#N)cc2cccc(Cl)c2c1=O | < 100 nM | 100 to 1000 nM | – | – | < 100 nM |
| COc1ncc(-c2cccc3cc([C@H](C)Nc4nc(N)ncc4C#N)n(C(C)C)c(=O)c23)cn1 | < 100 nM | 100 to 1000 nM | – | > 10000 nM | < 100 nM |
| C[C@H](Nc1nc(N)ncc1C(=O)C1CC1)c1cc2cccc(Cl)c2c(=O)n1-c1ccccc1 | – | – | – | > 10000 nM | < 100 nM |
| CCS(=O)(=O)c1cccc(-c2cnc(N)nc2N[C@@H](C)c2cc3cccc(Cl)c3c(=O)n2-c2ccccc2)c1 | 100 to 1000 nM | > 10000 nM | – | 100 to 1000 nM | < 100 nM |
| C[C@H](Nc1nc(N)ncc1-c1cncc(S(C)(=O)=O)c1)c1cc2cccc(Cl)c2c(=O)n1-c1ccccc1 | – | 100 to 1000 nM | – | – | < 100 nM |
| C[C@H](Nc1nc(N)ncc1C#N)c1cc2cccc(Cl)c2c(=O)n1-c1c(F)cccc1F | – | 100 to 1000 nM | > 10000 nM | – | < 100 nM |

| SMILES | IC50 (PIK3CD (Human) [1]) | IC50 (PIK3CG (human)) | IC50 (PIK3CA (human)) | IC50 (PIK3CB (Human)) | IC50 (PIK3CD (Human) [2]) |
| --- | --- | --- | --- | --- | --- |
| C[C@H](Nc1nc(N)ncc1-c1cccc(NS(C)(=O)=O)c1)c1cc2cccc(Cl)c2c(=O)n1-c1ccccc1 | < 100 nM | < 100 nM | – | – | < 100 nM |
| COc1cccc(-n2c([C@H](C)Nc3nc(N)ncc3C#N)cc3cccc(Cl)c3c2=O)c1 | 100 to 1000 nM | < 100 nM | > 10000 nM | – | < 100 nM |
| C[C@H](Nc1nc(N)ncc1C#N)c1cc2cccc(Cl)c2c(=O)n1-c1cccc(C#N)c1 | < 100 nM | 100 to 1000 nM | – | 100 to 1000 nM | < 100 nM |
| C[C@H](Nc1nc(N)ncc1-c1cccc(S(N)(=O)=O)c1)c1cc2cccc(Cl)c2c(=O)n1-c1ccccc1 | 100 to 1000 nM | < 100 nM | – | > 10000 nM | < 100 nM |
| C[C@H](Nc1nc(N)ncc1-c1cnc(S(C)(=O)=O)s1)c1cc2cccc(Cl)c2c(=O)n1-c1ccccc1 | < 100 nM | < 100 nM | > 10000 nM | – | < 100 nM |
| C[C@H](Nc1nc(N)ncc1C#N)c1cc2cccc(-c3cncc(N(C)C)c3)c2c(=O)n1-c1ccccc1 | < 100 nM | < 100 nM | 100 to 1000 nM | > 10000 nM | – |
| C[C@H](Nc1cc(C(F)(F)F)nc(N)n1)c1cc2cccc(Cl)c2c(=O)n1-c1ccccc1 | > 10000 nM | > 10000 nM | > 10000 nM | > 10000 nM | – |
| COc1cncc(-c2cccc3cc([C@H](C)Nc4nc(N)ncc4C#N)n(-c4ccccc4)c(=O)c23)n1 | < 100 nM | 100 to 1000 nM | > 10000 nM | > 10000 nM | – |
| C[C@H](Nc1ncnc(N)c1C#N)c1cc2cccc(Cl)c2c(C(=O)NC2CCOCC2)n1 | 100 to 1000 nM | – | > 10000 nM | > 10000 nM | < 100 nM |
| C[C@H](Nc1nc(N)ncc1-c1cccc(N(C)S(C)(=O)=O)c1)c1cc2cccc(Cl)c2c(=O)n1-c1ccccc1 | 100 to 1000 nM | < 100 nM | – | – | < 100 nM |
| COc1cc(-c2cccc3cc([C@H](C)Nc4nc(N)ncc4C(=O)N(C)OC)n(-c4ccccc4)c(=O)c23)ccn1 | 100 to 1000 nM | < 100 nM | > 10000 nM | > 10000 nM | – |
| C[C@H](Nc1ncncc1-c1cccc(S(=O)(=O)N(C)C)c1)c1cc2cccc(Cl)c2c(=O)n1-c1ccccc1 | 100 to 1000 nM | 100 to 1000 nM | – | > 10000 nM | < 100 nM |
| COc1ccc(-c2cnc(N)nc2N[C@@H](C)c2cc3cccc(Cl)c3c(=O)n2-c2ccccc2)cn1 | 100 to 1000 nM | < 100 nM | – | > 10000 nM | < 100 nM |
| COc1cc(-c2cccc3cc([C@H](C)Nc4nc(N)ncc4-c4ccc(F)c(O)c4)n(-c4ccccc4)c(=O)c23)ccn1 | < 100 nM | < 100 nM | > 10000 nM | > 10000 nM | – |
| C[C@H](Nc1nc(N)ncc1C#N)c1cc2cccc(Cl)c2c(=O)n1C1CCCC1 | < 100 nM | < 100 nM | > 10000 nM | 100 to 1000 nM | – |
| C[C@H](Nc1nc(N)ncc1-c1cccc(S(=O)(=O)C2CC2)c1)c1cc2cccc(Cl)c2c(=O)n1-c1ccccc1 | < 100 nM | < 100 nM | – | – | < 100 nM |
| Cc1ncc(-c2cccc3cc([C@H](C)Nc4nc(N)ncc4C#N)n(-c4ccon4)c(=O)c23)cn1 | < 100 nM | – | > 10000 nM | > 10000 nM | < 100 nM |
| COc1ncc(-c2cccc3cc([C@H](C)Nc4ncnc(N)c4C#N)n(-c4ccon4)c(=O)c23)cn1 | 100 to 1000 nM | – | – | > 10000 nM | < 100 nM |
| C[C@H](Nc1nc(N)ncc1C#N)c1cc2cccc(-c3cnc4ccccc4c3)c2c(=O)n1-c1ccccc1 | < 100 nM | < 100 nM | < 100 nM | 100 to 1000 nM | – |
| C[C@H](Nc1ncnc(N)c1[N+](=O)[O-])c1cc2cccc(Cl)c2c(=O)n1-c1ccccc1 | < 100 nM | < 100 nM | 100 to 1000 nM | < 100 nM | – |
| C[C@H](Nc1nc(N)ncc1C#N)c1cc2cccc(-c3ccc(=O)n(C)c3)c2c(=O)n1-c1ccon1 | – | 100 to 1000 nM | – | – | < 100 nM |
| COc1cncc(-c2cccc3cc([C@H](C)Nc4nc(N)ncc4C#N)n(C4CC4)c(=O)c23)c1 | < 100 nM | < 100 nM | 100 to 1000 nM | 100 to 1000 nM | – |
| Cc1ccc(NS(C)(=O)=O)cc1-c1cnc(N)nc1N[C@@H](C)c1cc2cccc(Cl)c2c(=O)n1-c1ccccc1 | < 100 nM | < 100 nM | > 10000 nM | – | < 100 nM |
| Cc1ncc(-c2cnc(N)nc2N[C@@H](C)c2cc3cccc(Cl)c3c(=O)n2-c2ccccc2)s1 | < 100 nM | < 100 nM | > 10000 nM | 100 to 1000 nM | – |
| COc1ncc(-c2cccc3cc([C@H](C)Nc4nc(N)ncc4-c4cncs4)n(-c4ccccc4)c(=O)c23)cn1 | < 100 nM | < 100 nM | – | – | < 100 nM |
| N#Cc1cnc(N)nc1NCc1cc2cccc(Cl)c2c(=O)n1-c1ccccc1 | < 100 nM | 100 to 1000 nM | – | – | < 100 nM |
